{
  "source": "patent US10646469B2",
  "about": "“Substituted indole derivatives as dengue viral replication inhibitors” (Janssen Pharmaceuticals, Inc., priority 2016, dated 2020)",
  "key": {"[1]": {"system": "DENV-2 16681 strain", "experiment": "DENV-2 antiviral assay (eGFP-labeled virus in Vero cells)", "format": "cell-based, Dengue virus", "details": "DENV-2 16681 eGFP, MOI 0.5, 3 days", "protocol": "The antiviral activity of all the compounds of the invention was tested against the DENV-2 16681 strain which was labeled with enhanced green fluorescent protein (eGPF). The culture medium consists of minimal essential medium supplemented with 2% of heat-inactivated fetal calf serum, 0.04% gentamycin (50 mg/mL) and 2 mM of L-glutamine. Vero cells, obtained from ECACC, were suspended in culture medium and 25 μL was added to 384-well plates (2500 cells/well), which already contain the antiviral compounds. Typically, these plates contain a 5-fold serial dilution of 9 dilution steps of the test compound at 200 times the final concentration in 100% DMSO (200 nL). […] Finally, each plate contains wells which are assigned as virus controls (containing cells and virus in the absence of compound), cell controls (containing cells in the absence of virus and compound) and medium controls (containing medium in the absence of cells, virus and compounds). To the wells assigned as medium control, 25 μL of culture medium was added instead of Vero cells. Once the cells were added to the plates, the plates were incubated for 30 minutes at room temperature to allow the cells to distribute evenly within the wells. Next, the plates were incubated in a fully humidified incubator (37° C., 5% CO2) until the next day. Then, DENV-2 strain 16681, labeled with eGFP, was added at a multiplicity of infection (MOI) of 0.5. Therefore, 15 μL of virus suspension was added to all the wells containing test compound and to the wells assigned as virus control. In parallel, 15 μL of culture medium was added to the medium and cell controls. Next, the plates were incubated for 3 days in a fully humidified incubator (37° C., 5% CO2). At the day of the read out, the eGFP fluorescence was measured using an automated fluorescence microscope at 488 nm (blue laser). Using an in-house LIMS system, inhibition dose response curves for each compound were calculated and the half maximal effective concentration (EC50) was determined. Therefore, the percent inhibition (I) for every test concentration is calculated using the following formula: I=100*([…])/(SVC−SCC); ST, SCC and SVC are the amount of eGFP signal in the test compound, cell control and virus control wells, respectively. The EC50 represents the concentration of a compound at which the virus replication is inhibited with 50%, as measured by a 50% reduction of the eGFP fluorescent intensity compared to the virus control. The EC50 is calculated using linear interpolation (Table 1)."}, "[2]": {"experiment": "Toxicity on the same plates (ATPlite cell viability)", "details": "African green monkey, CC50, Vero cells, same plates as DENV-2 antiviral assay"}, "[3]": {"system": "Vero cells", "experiment": "Toxicity on the same plates (ATPlite cell viability)", "details": "Vero cells, same plates as DENV-2 antiviral assay"}, "[4]": {"details": "Dengue virus, DENV2, Vero, 72 h"}},
  "data": [
    {"smiles": "COc1cc(NC(C(=O)c2c[nH]c3cc(F)c(C(F)(F)F)cc23)c2ccc(F)cc2OC)cc(OCCO)c1", "note": "(racemic) [Compound 3, 2-(4-fluoro-2-methoxyphenyl)-1-(6-fluoro-5-(trifluoromethyl)-1H-indol-3-yl)-2-((3-(2-hydroxyethoxy)-5-methoxyphenyl)amino)ethanone]", "values": [
      {"measurement": "EC50", "setting": "[1]; [4]", "value": 0.99, "unit": "nM"},
      {"measurement": "CC50", "setting": "[2]", "value": 3000, "unit": "nM"}
    ]},
    {"smiles": "COc1cc(NC(C(=O)c2c[nH]c3c(C)cc(C(F)(F)F)cc23)c2ccc(F)cc2OC)cc(OCCO)c1", "note": "(racemic) [Compound 4, 2-(4-fluoro-2-methoxyphenyl)-2-((3-(2-hydroxyethoxy)-5-methoxyphenyl)amino)-1-(7-methyl-5-(trifluoromethyl)-1H-indol-3-yl)ethanone]", "values": [
      {"measurement": "EC50", "setting": "[1]; [4]", "value": 0.62, "unit": "nM"},
      {"measurement": "CC50", "setting": "[2]", "value": 6100, "unit": "nM"}
    ]},
    {"smiles": "COc1cc(NC(C(=O)c2c[nH]c3ccc(OC(F)(F)F)cc23)c2ccc(F)cc2OC)cc(OCCO)c1", "note": "(racemic) [Compound 5, 2-(4-fluoro-2-methoxyphenyl)-2-((3-(2-hydroxyethoxy)-5-methoxyphenyl)amino)-1-(5-(trifluoromethoxy)-1H-indol-3-yl)ethanone]", "values": [
      {"measurement": "EC50", "setting": "[1]; [4]", "value": 0.5, "unit": "nM"},
      {"measurement": "CC50", "setting": "[2]", "value": 4500, "unit": "nM"}
    ]},
    {"smiles": "COc1cc(NC(C(=O)c2c[nH]c3c(C)cc(OC(F)(F)F)cc23)c2ccc(F)cc2OC)cc(OCCO)c1", "note": "(racemic) [Compound 8, 2-(4-fluoro-2-methoxyphenyl)-2-((3-(2-hydroxyethoxy)-5-methoxyphenyl)amino)-1-(7-methyl-5-(trifluoromethoxy)-1H-indol-3-yl)ethanone]", "values": [
      {"measurement": "EC50", "setting": "[1]; [4]", "value": 0.41, "unit": "nM"},
      {"measurement": "CC50", "setting": "[2]", "value": 4700, "unit": "nM"}
    ]},
    {"smiles": "COc1cc(NC(C(=O)c2c[nH]c3ccc(C(F)(F)F)cc23)c2ccc(Cl)cc2OC)cc(OCCO)c1", "note": "(racemic) [Compound 9, 2-(4-chloro-2-methoxyphenyl)-2-((3-(2-hydroxyethoxy)-5-methoxyphenyl)amino)-1-(5-(trifluoromethyl)-1H-indol-3-yl)ethanone]", "values": [
      {"measurement": "EC50", "setting": "[1]; [4]", "value": 0.29, "unit": "nM"},
      {"measurement": "CC50", "setting": "[2]", "value": 2500, "unit": "nM"}
    ]},
    {"smiles": "COc1cc(NC(C(=O)c2c[nH]c3cc(OC)c(C(F)(F)F)cc23)c2ccc(Cl)cc2OC)cc(OCCO)c1", "note": "(racemic) [Compound 10, 2-(4-chloro-2-methoxyphenyl)-2-((3-(2-hydroxyethoxy)-5-methoxyphenyl)amino)-1-(6-methoxy-5-(trifluoromethyl)-1H-indol-3-yl)ethanone]", "values": [
      {"measurement": "EC50", "setting": "[1]; [4]", "value": 0.27, "unit": "nM"},
      {"measurement": "CC50", "setting": "[2]", "value": 3200, "unit": "nM"}
    ]},
    {"smiles": "COc1cc(NC(C(=O)c2c[nH]c3cc(OC)c(OC(F)(F)F)cc23)c2ccc(Cl)cc2OC)cc(OCCO)c1", "note": "(racemic) [Compound 14, 2-(4-chloro-2-methoxyphenyl)-2-((3-(2-hydroxyethoxy)-5-methoxyphenyl)amino)-1-(6-methoxy-5-(trifluoromethoxy)-1H-indol-3-yl)ethanone]", "values": [
      {"measurement": "EC50", "setting": "[1]; [4]", "value": 0.34, "unit": "nM"},
      {"measurement": "CC50", "setting": "[2]", "value": 3500, "unit": "nM"}
    ]},
    {"smiles": "COc1cc(NC(C(=O)c2c[nH]c3ccc(C(F)(F)F)cc23)c2ccc(F)cc2OC)cc(OCCO)c1", "note": "(single isomer, unassigned) [Compound 1A, 2-(4-fluoro-2-methoxyphenyl)-2-((3-(2-hydroxyethoxy)-5-methoxyphenyl)amino)-1-(5-(trifluoromethyl)-1H-indol-3-yl)ethanone]", "values": [
      {"measurement": "EC50", "setting": "[1]", "value": 64, "unit": "nM"},
      {"measurement": "CC50", "setting": "[3]", "value": 6800, "unit": "nM"}
    ]},
    {"smiles": "COc1cc(NC(C(=O)c2c[nH]c3cc(OC)c(C(F)(F)F)cc23)c2ccc(F)cc2OC)cc(OCCO)c1", "note": "(single isomer, unassigned) [Compound 2B, 2-(4-fluoro-2-methoxyphenyl)-2-((3-(2-hydroxyethoxy)-5-methoxyphenyl)amino)-1-(6-methoxy-5-(trifluoromethyl)-1H-indol-3-yl)ethanone]", "values": [
      {"measurement": "EC50", "setting": "[1]", "value": 24, "unit": "nM"},
      {"measurement": "CC50", "setting": "[3]", "value": 6800, "unit": "nM"}
    ]},
    {"smiles": "COc1cc(NC(C(=O)c2c[nH]c3cc(F)c(C(F)(F)F)cc23)c2ccc(F)cc2OC)cc(OCCO)c1", "note": "(single isomer, unassigned) [Compound 3B, 2-(4-fluoro-2-methoxyphenyl)-1-(6-fluoro-5-(trifluoromethyl)-1H-indol-3-yl)-2-((3-(2-hydroxyethoxy)-5-methoxyphenyl)amino)ethanone]", "values": [
      {"measurement": "EC50", "setting": "[1]", "value": 15, "unit": "nM"},
      {"measurement": "CC50", "setting": "[3]", "value": 7800, "unit": "nM"}
    ]},
    {"smiles": "COc1cc(NC(C(=O)c2c[nH]c3c(C)cc(C(F)(F)F)cc23)c2ccc(F)cc2OC)cc(OCCO)c1", "note": "(single isomer, unassigned) [Compound 4A, 2-(4-fluoro-2-methoxyphenyl)-2-((3-(2-hydroxyethoxy)-5-methoxyphenyl)amino)-1-(7-methyl-5-(trifluoromethyl)-1H-indol-3-yl)ethanone]", "values": [
      {"measurement": "EC50", "setting": "[1]", "value": 63, "unit": "nM"},
      {"measurement": "CC50", "setting": "[3]", "value": 11000, "unit": "nM"}
    ]},
    {"smiles": "COc1cc(NC(C(=O)c2c[nH]c3ccc(OC(F)(F)F)cc23)c2ccc(F)cc2OC)cc(OCCO)c1", "note": "(single isomer, unassigned) [Compound 5A, 2-(4-fluoro-2-methoxyphenyl)-2-((3-(2-hydroxyethoxy)-5-methoxyphenyl)amino)-1-(5-(trifluoromethoxy)-1H-indol-3-yl)ethanone]", "values": [
      {"measurement": "EC50", "setting": "[1]", "value": 30, "unit": "nM"},
      {"measurement": "CC50", "setting": "[2]", "value": 5400, "unit": "nM"}
    ]},
    {"smiles": "COc1cc(NC(C(=O)c2c[nH]c3cc(OC)c(OC(F)(F)F)cc23)c2ccc(F)cc2OC)cc(OCCO)c1", "note": "(single isomer, unassigned) [Compound 6B, 2-(4-fluoro-2-methoxyphenyl)-2-((3-(2-hydroxyethoxy)-5-methoxyphenyl)amino)-1-(6-methoxy-5-(trifluoromethoxy)-1H-indol-3-yl)ethanone]", "values": [
      {"measurement": "EC50", "setting": "[1]", "value": 98, "unit": "nM"},
      {"measurement": "CC50", "setting": "[3]", "value": 10000, "unit": "nM"}
    ]},
    {"smiles": "COc1cc(NC(C(=O)c2c[nH]c3cc(F)c(OC(F)(F)F)cc23)c2ccc(F)cc2OC)cc(OCCO)c1", "note": "(single isomer, unassigned) [Compound 7A, 2-(4-fluoro-2-methoxyphenyl)-1-(6-fluoro-5-(trifluoromethoxy)-1H-indol-3-yl)-2-((3-(2-hydroxyethoxy)-5-methoxyphenyl)amino)ethanone]", "values": [
      {"measurement": "EC50", "setting": "[1]", "value": 25, "unit": "nM"},
      {"measurement": "CC50", "setting": "[3]", "value": 6700, "unit": "nM"}
    ]},
    {"smiles": "COc1cc(NC(C(=O)c2c[nH]c3c(C)cc(OC(F)(F)F)cc23)c2ccc(F)cc2OC)cc(OCCO)c1", "note": "(single isomer, unassigned) [Compound 8B, 2-(4-fluoro-2-methoxyphenyl)-2-((3-(2-hydroxyethoxy)-5-methoxyphenyl)amino)-1-(7-methyl-5-(trifluoromethoxy)-1H-indol-3-yl)ethanone]", "values": [
      {"measurement": "EC50", "setting": "[1]", "value": 31, "unit": "nM"},
      {"measurement": "CC50", "setting": "[3]", "value": 6000, "unit": "nM"}
    ]},
    {"smiles": "COc1cc(NC(C(=O)c2c[nH]c3cc(F)c(C(F)(F)F)cc23)c2ccc(Cl)cc2OC)cc(OCCO)c1", "note": "(single isomer, unassigned) [Compound 11B, 2-(4-chloro-2-methoxyphenyl)-1-(6-fluoro-5-(trifluoromethyl)-1H-indol-3-yl)-2-((3-(2-hydroxyethoxy)-5-methoxyphenyl)amino)ethanone]", "values": [
      {"measurement": "EC50", "setting": "[1]", "value": 15, "unit": "nM"},
      {"measurement": "CC50", "setting": "[3]", "value": 2700, "unit": "nM"}
    ]},
    {"smiles": "COc1cc(NC(C(=O)c2c[nH]c3c(C)cc(C(F)(F)F)cc23)c2ccc(Cl)cc2OC)cc(OCCO)c1", "note": "(single isomer, unassigned) [Compound 12B, 2-(4-chloro-2-methoxyphenyl)-2-((3-(2-hydroxyethoxy)-5-methoxyphenyl)amino)-1-(7-methyl-5-(trifluoromethyl)-1H-indol-3-yl)ethanone]", "values": [
      {"measurement": "EC50", "setting": "[1]", "value": 38, "unit": "nM"},
      {"measurement": "CC50", "setting": "[3]", "value": 11000, "unit": "nM"}
    ]},
    {"smiles": "COc1cc(NC(C(=O)c2c[nH]c3ccc(OC(F)(F)F)cc23)c2ccc(Cl)cc2OC)cc(OCCO)c1", "note": "(single isomer, unassigned) [Compound 13B, 2-(4-chloro-2-methoxyphenyl)-2-((3-(2-hydroxyethoxy)-5-methoxyphenyl)amino)-1-(5-(trifluoromethoxy)-1H-indol-3-yl)ethanone]", "values": [
      {"measurement": "EC50", "setting": "[1]", "value": 7.2, "unit": "nM"},
      {"measurement": "CC50", "setting": "[3]", "value": 5800, "unit": "nM"}
    ]},
    {"smiles": "COc1cc(NC(C(=O)c2c[nH]c3cc(OC)c(OC(F)(F)F)cc23)c2ccc(Cl)cc2OC)cc(OCCO)c1", "note": "(single isomer, unassigned) [Compound 14B, 2-(4-chloro-2-methoxyphenyl)-2-((3-(2-hydroxyethoxy)-5-methoxyphenyl)amino)-1-(6-methoxy-5-(trifluoromethoxy)-1H-indol-3-yl)ethanone]", "values": [
      {"measurement": "EC50", "setting": "[1]", "value": 7.2, "unit": "nM"},
      {"measurement": "CC50", "setting": "[3]", "value": 5400, "unit": "nM"}
    ]},
    {"smiles": "COc1cc(NC(C(=O)c2c[nH]c3c(C)cc(OC(F)(F)F)cc23)c2ccc(Cl)cc2OC)cc(OCCO)c1", "note": "(single isomer, unassigned) [Compound 16B, 2-(4-chloro-2-methoxyphenyl)-2-((3-(2-hydroxyethoxy)-5-methoxyphenyl)amino)-1-(7-methyl-5-(trifluoromethoxy)-1H-indol-3-yl)ethanone]", "values": [
      {"measurement": "EC50", "setting": "[1]", "value": 15, "unit": "nM"},
      {"measurement": "CC50", "setting": "[3]", "value": 3600, "unit": "nM"}
    ]}
  ]
}
